# Results published in paper PMC7002685, “Inhibition of vascular calcification by inositol phosphates derivatized with ethylene glycol oligomers” (Nature Communications, 2020).
# Where “and” joins values, the source holds several entries; their conditions need not be identical. Identical values can stand only once.
# Key:
# Glutamate, NMDA, Agonism = test: Off-target 232810; assay type: binding, Rat; settings: 10 µM
# Procedure: (§1) The potential off-target activity of 10 µM (OEG2)2-IP4 was assessed against a panel of 87 enzymes, receptors, or ion channels that are used in standard safety pharmacology screens.
# (§2) 3.2. Off-target screening assay
# (§3) The experiments were conducted by a contract research organization (Eurofins Panlabs Discovery Services Taiwan, Ltd.) and details on the respective assays can be retrieved via the catalog number provided in Supplementary Table 11 from the company’s webpage
# (§4) (https://www.eurofinsdiscoveryservices.com/). […]
# (§5) At sacrifice the left tibia of animals of the rat model with dietary adenine/high-phosphate-induced uremia and VC was collected, fixed with 70% v/v EtOH and embedded in methyl methacrylate. The trabecular bone compartment is known to be the most metabolic active i.e. actively re-structured bone compartment in CKD. Therefore, histomorphometric and micro-computed tomography (µCT) analysis of bone was performed on the trabecular compartment. Tibial sections were Goldner-stained for histomorphometric analysis of the proximal metaphysis using the AxioVision Release 4.5 software, as […]
# (§6) described previously5. […]
# Endothelin ETA = biological target: T1, Endothelin ETA (Homo sapiens, UniProt P25101); test: Off-target 224010; assay type: binding
# T1 construct: purchased Eurofins Panlabs Discovery Services Taiwan, Ltd
# T1 sequence (P25101 21-427): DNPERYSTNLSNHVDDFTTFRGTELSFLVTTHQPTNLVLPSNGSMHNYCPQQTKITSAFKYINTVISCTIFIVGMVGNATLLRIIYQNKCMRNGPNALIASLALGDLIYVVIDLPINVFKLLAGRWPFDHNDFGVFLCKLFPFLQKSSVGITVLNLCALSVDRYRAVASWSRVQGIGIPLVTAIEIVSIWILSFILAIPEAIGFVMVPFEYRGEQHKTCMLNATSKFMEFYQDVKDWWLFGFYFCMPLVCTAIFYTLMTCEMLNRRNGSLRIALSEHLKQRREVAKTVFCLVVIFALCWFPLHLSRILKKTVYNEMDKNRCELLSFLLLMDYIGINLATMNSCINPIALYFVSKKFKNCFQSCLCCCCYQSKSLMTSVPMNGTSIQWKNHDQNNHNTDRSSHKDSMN
# Procedure: as §1, §2, §3, §4, §5, §6
# Phosphodiesterase PDE4 = test: Off-target 154000; assay type: biochemical, Human; settings: 10 µM
# Procedure: as §1, §2, §3, §4, §5, §6
# [1] = 18F-NaF micro-PET/CT uptake on calcified human femoral arteries ex vivo; assay type: binding
# Procedure: (§7) To investigate (OEG2)2-IP4 interaction with calcified tissues in a clinically relevant context, a competitive binding assay using ^18F-NaF was applied on severely calcified human femoral arteries and native aortic valves ex vivo. […] First, ^18F-NaF uptake was measured on tissue samples treated with vehicle (human serum) and thereafter, using the same tissue samples, treated with (OEG2)2-IP4 in serum.
# (§8) Triplicate aliquots of CPP2s (20 µg Ca/mL) in 100 μL assay buffer (100 mM HBS, pH 7.4 (RT)) were incubated for 1 h at RT in the presence of increasing concentrations of compounds in 50 μL Milli-Q water and ^18F-NaF (1 nM) in 50 μL assay buffer, resulting in a total incubation volume of 200 μL (^18F-NaF was prepared using a FASTlab synthesizer (GE Healthcare, Little Chalfont, UK) and commercially available ^18F-NaF cassettes (GE Healthcare)). Maximum radiotracer binding was determined by incubating CPP2s with ^18F-NaF (1 nM) only. The reaction was terminated by rapid filtration through a SOLAμ™ SPE plate (HRP 2 mg/mL 96-well plate, 22 μm; Thermo Fisher Scientific). SPE individual column matrices were washed twice rapidly in assay buffer and radioactivity on the filters determined by an automatic gamma counter (Wizard2 Gamma Counter, Perkin Elmer, Waltham, MA, USA). […]
# [2] = 18F-NaF micro-PET/CT uptake on calcified human aortic valves ex vivo; assay type: binding
# Procedure: as §7, §8
# [3] = biological target: T2, Serotonin (5-Hydroxytryptamine) 5-HT2A (Homo sapiens, UniProt P28223); test: Off-target 271650; assay type: binding
# T2 construct: purchased Eurofins Panlabs Discovery Services Taiwan, Ltd
# T2 sequence (P28223 whole entry): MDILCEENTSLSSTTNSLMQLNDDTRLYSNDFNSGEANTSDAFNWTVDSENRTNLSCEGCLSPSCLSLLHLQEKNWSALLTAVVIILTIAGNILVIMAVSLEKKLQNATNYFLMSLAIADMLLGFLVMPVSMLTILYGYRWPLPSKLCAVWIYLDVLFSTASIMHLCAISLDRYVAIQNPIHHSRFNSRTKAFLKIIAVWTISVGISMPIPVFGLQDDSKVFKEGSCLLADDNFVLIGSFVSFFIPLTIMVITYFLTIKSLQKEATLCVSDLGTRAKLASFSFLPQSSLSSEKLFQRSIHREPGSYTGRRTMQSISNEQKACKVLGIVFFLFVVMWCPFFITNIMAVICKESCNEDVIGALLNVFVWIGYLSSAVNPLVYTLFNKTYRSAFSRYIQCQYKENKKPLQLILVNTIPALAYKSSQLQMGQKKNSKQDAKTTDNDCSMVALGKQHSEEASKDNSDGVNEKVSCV
# Procedure: as §1, §2, §3, §4, §5, §6
smiles,measurement,setting,value
"COCCOCCO[C@@H]1[C@@H](OP(=O)(O)O)[C@H](OCCOCCOC)[C@@H](OP(=O)(O)O)[C@@H](OP(=O)(O)O)[C@H]1OP(=O)(O)O [(OEG2)2-IP4, 4,6-Di-O-(methoxy-diethyleneglycol)-myo-inositol-1,2,3,5-tetrakis(phosphate)]",% Inhibition,"Glutamate, NMDA, Agonism",7%
same,inhibition at 10 µM,Endothelin ETA,8%
same,% Inhibition,Phosphodiesterase PDE4,12%
same,change of 18F-NaF uptake vs vehicle,[1]; 8.6 μM in human serum,−38%
same,maximum average 18F binding (18F-NaF-PET),"[1]; IC90 concentration in human serum, individual samples Fig. 3j, unit not given",319.764 and 464.582 and 653.422 and 447.312 and 563.189 and 486.153 and 450.235
same,change of 18F-NaF uptake vs vehicle,[2]; 8.6 μM in human serum,−33%
same,maximum average 18F binding (18F-NaF-PET),"[2]; IC90 concentration in human serum, individual samples Fig. 3k, unit not given",547.591 and 685.802 and 706.308
same,inhibition at 10 µM,[3],-1%
